Measurements taken from patent publication US20190000789A1, “COMPOSITION AND METHOD FOR TREATING INFECTIONS CAUSED BY VANCOMYCIN-RESISTANT INFECTIOUS AGENTS IN A SUBJECT” (priority 2015, published 2019).

Test system: S. coelicolor LAG2
Test: LC-MS analysis of peptidoglycan precursors, including time course after alanine addition
Assay type: cell-based, Streptomyces coelicolor
Procedure: In order to get more insights into the synthesis of vancomycin-sensitive (i.e., wild-type) or the alternate vancomycin-resistant peptidoglycan, the pool of peptidoglycan precursors was analyzed by Liquid Chromatography coupled to Mass Spectrometry (LC-MS). When cells produce wild-type PG, only the MurNac-pentapeptide with a D-Ala-D-Ala terminus are detected, while vancomycin-resistant PG precursors have a D-Ala-D-Lac terminus. To analyze the precursors produced in S. coelicolor M145 and its mutant derivatives LAG1 (Δddl) and LAG2 (Δddl vanS::IS466A) in the presence or absence of vancomycin, the strains were grown until exponential phase, after which the cultures were harvested, washed and the precursors extracted with 5% TCA. The supernatants were desalted, concentrated and analyzed by LC-MS (see Materials and Methods section).
To investigate what the effect would be of the addition of excess of D-Ala on the accumulation of wild-type precursors, a time-course experiment was performed to follow the effect of D-Ala addition on the ratio between wild-type and resistant precursors. Therefore, 300 ml liquid-grown NMMP cultures were supplemented with either D-Ala or L-Ala (control) at 50 mM end concentration, and 10 ml samples were collected prior to and 1, 5, 15, 30, 60, 120 and 180 minutes after the addition of either alanine stereoisomer. Samples were immediately filtered by vacuum filtration, washed in 0.9% NaCl, biomass scraped off the filter, added to a tube containing 5% TCA and samples prepared as described above. […] However, addition of 50 mM D-Ala triggered the production of small amounts of wt precursor (1%) within 1 minute. After 15 minutes, this amount had increased to 4%, which appeared to be close to the maximum, with levels of wt precursors never exceeding 5%.
For the precursor isolation and identification, a modification of the method described previously by Hong and colleagues (Hong et al., 2004) was used. 10 μg vancomycin was added to the strains at the moment of inoculation. The strains were grown in NMMP (1% (w/v) Mannitol, 50 mM MgCl2) until mid-log phase (OD-0.3-0.4) and mycelia were harvested by centrifugation at 4° C. and washed in 0.9% NaCl. The mycelium was extracted with 5% cold trichloric acid (TCA) for 30 minutes at 4° C. This was centrifuged and the supernatant desalted on a Sephadex G-25 column (Illustra NAP-10 Columns, GE Healthcare, Pittsburgh), and concentrated by rotary evaporation. The concentrated precursors were dissolved in HPLC-grade water and separated by LC-MS using a gradient of 0-20% acetonitrile in water with 0.1% TFA. The elution was monitored at 254 nm and monitored by the sizes eluted (1193.8-1195.3).
For the measurement over time, the protocol was adjusted in the following way: 300 ml NMMP cultures were grown until exponential phase, at which point a 10 ml sample was taken (sample t=0) and 50 mM of D-Ala or L-Ala was added, followed by further sampling after 1, 5, 15, 30, 60, 120 and 180 minutes. Samples were rapidly filtered with a vacuum pump and washed with 0.9% (w/v) NaCl, mycelia scraped off the filter and transferred to 5% TCA.

## CN[C@H](CC(C)C)C(=O)N[C@H]1C(=O)N[C@@H](CC(N)=O)C(=O)N[C@H]2C(=O)N[C@H]3C(=O)N[C@H](C(=O)N[C@H](C(=O)O)c4cc(O)cc(O)c4-c4cc3ccc4O)[C@H](O)c3ccc(c(Cl)c3)Oc3cc2cc(c3O[C@@H]2O[C@H](CO)[C@@H](O)[C@H](O)[C@H]2O[C@H]2C[C@](C)(N)[C@H](O)[C@H](C)O2)Oc2ccc(cc2Cl)[C@H]1O [vancomycin]
LAG2 grown with vancomycin
  precursors terminated with D-Ala-D-Lac: 99.8%
LAG2 with vancomycin (FIG. 3B)
  wild-type (vancomycin-sensitive) peptidoglycan: less than 1%
